From ChEMBL document CHEMBL4673302, “Efficient synthesis and antitumor evaluation of 4-aminomethyl-N-arylpyrazoles: Discovery of potent and selective agents for ovarian cancer” (Bioorg Med Chem, 2021) come the findings set out here.

Structures are written as SMILES.

One series has as its system U-251. In words: Anticancer activity against human U-251 cells assessed as cell growth inhibition measured after 48 hrs by sulforhodamine B assay. In kind it is functional.
Another series has as its system 786-0. As to the kind of experiment: Anticancer activity against human 786-0 cells assessed as cell growth inhibition measured after 48 hrs by sulforhodamine B assay. In kind it is functional.
The test system of the next series is K562. As to the kind of experiment: Anticancer activity against human K562 cells assessed as cell growth inhibition measured after 48 hrs by sulforhodamine B assay. The series is classed as functional.
For a further series, the system named is NCI-H460. In words: Anticancer activity against human NCI-H460 cells assessed as cell growth inhibition measured after 48 hrs by sulforhodamine B assay. In kind it is functional.
For the next series, the system named is MCF7. In words: Anticancer activity against human MCF7 cells assessed as cell growth inhibition measured after 48 hrs by sulforhodamine B assay. The series is classed as functional.
For a further series, the system named is PC-3. In words: Anticancer activity against human PC-3 cells assessed as cell growth inhibition measured after 48 hrs by sulforhodamine B assay. In kind it is functional.
The subject of the next series is HaCaT. In words: (§1) Cytotoxicity against human HaCaT cells assessed as cell growth inhibition measured after 48 hrs by sulforhodamine B assay. In kind it is cell-based. The conditions noted are these: hacat, 48 h.
A further series concerns HT-29. As to the kind of experiment: Anticancer activity against human HT-29 cells assessed as cell growth inhibition measured after 48 hrs by sulforhodamine B assay. The series is classed as functional.
The subject of a further series is OVCAR-3. In words: Anticancer activity against human OVCAR-3 cells assessed as cell growth inhibition measured after 48 hrs by sulforhodamine B assay. The series is classed as functional.
Series [1] is described as follows: as §1. The series is classed as cell-based. The conditions noted are these: HaCaT cells.

For the compound `CCOC(=O)c1nn(-c2ccc(Cl)cc2)c(-c2ccc([N+](=O)[O-])cc2)c1CNC(C)(C)C` [listing 1 of 2 here], the GI50 in the series with U-251 (48 h) came out at 340 µM; in the series with 786-0 (48 h) it was 51.2 µM; with K562 (48 h) it was 14.8 µM; in the series on NCI-H460 (48 h) it was 52.8 µM; in the series on MCF7 (48 h) it was 205 µM; in the series with PC-3 (48 h) it was 304 µM. Further, the values for the concentration for 50% growth inhibition (GI50) in the series with HaCaT, with HT-29 (48 h) and in the series with OVCAR-3 (48 h) were 145 µM, 40.8 µM and 16.1 µM, respectively.

In the case of `CCOC(=O)c1nn(-c2ccc(Cl)cc2)c(-c2ccccc2)c1CNC(C)(C)C`, the concentration for 50% growth inhibition (GI50) in the series on U-251 (Homo sapiens, U-251, 48 h) was greater than 608 µM; in the series on 786-0 (Homo sapiens, 786-0, 48 h), greater than 608 µM; in the series with K562 (48 h), 64.5 µM; with NCI-H460 (Homo sapiens, NCI-H460, 48 h), greater than 608 µM; in the series on MCF7 (Homo sapiens, MCF7, 48 h), greater than 608 µM; in the series with PC-3 (Homo sapiens, PC-3, 48 h), greater than 608 µM. For the same compound, the GI50 in the series on HT-29 (Homo sapiens, HT-29, 48 h) is 336 µM; in the series on OVCAR-3 (Homo sapiens, OVCAR-3, 48 h), greater than 608 µM. Also, the GI50 at 48 h in series [1] was greater than 608 µM.

Regarding `CCOC(=O)c1nn(-c2ccc(Cl)cc2)c(-c2ccc(Br)cc2)c1CNC(C)(C)C`, the concentration for 50% growth inhibition (GI50) in the series on U-251 (Homo sapiens, U-251, 48 h) is greater than 511 µM; with 786-0 (Homo sapiens, 786-0, 48 h), greater than 511 µM; with K562 (Homo sapiens, K562, 48 h) it was greater than 511 µM; with NCI-H460 (Homo sapiens, NCI-H460, 48 h), greater than 511 µM; with MCF7 (Homo sapiens, MCF7, 48 h), greater than 511 µM; with PC-3 (Homo sapiens, PC-3, 48 h) it was greater than 511 µM. In addition, the GI50 with HT-29 (Homo sapiens, HT-29, 48 h) is greater than 511 µM; with OVCAR-3 (Homo sapiens, OVCAR-3, 48 h) it was greater than 511 µM. The GI50 at 48 h in [1] is greater than 511 µM.

Take `COc1ccc(-c2c(CNC(C)(C)C)c(C(=O)O)nn2-c2ccccc2)cc1`: the GI50 with U-251 (Homo sapiens, U-251, 48 h) was greater than 659 µM; in the series on 786-0 (Homo sapiens, 786-0, 48 h) it was greater than 659 µM; in the series with K562 (Homo sapiens, K562, 48 h) it was greater than 659 µM; with NCI-H460 (Homo sapiens, NCI-H460, 48 h) it was greater than 659 µM; with MCF7 (Homo sapiens, MCF7, 48 h), greater than 659 µM; in the series with PC-3 (Homo sapiens, PC-3, 48 h), greater than 659 µM. Also, the GI50 in the series with HT-29 (Homo sapiens, HT-29, 48 h) is greater than 659 µM; with OVCAR-3 (Homo sapiens, OVCAR-3, 48 h), greater than 659 µM. Also, the GI50 at 48 h in [1] is greater than 659 µM.

Regarding `CCOC(=O)c1nn(-c2ccc(Cl)cc2)c(-c2ccc(OC)cc2)c1CNC(C)(C)C`, the 50% growth inhibitory concentration (GI50) in the series on U-251 (48 h), with 786-0 (48 h), with K562 (48 h), in the series with NCI-H460 (48 h), in the series with MCF7 (48 h) and in the series with PC-3 (48 h) was greater than 524 µM each time. For the same compound, the GI50 in the series on HaCaT, in the series on HT-29 (48 h) and in the series on OVCAR-3 (48 h) was greater than 524 µM each time.

`CCOC(=O)c1nn(-c2ccc(Cl)cc2)c(-c2ccc(C)cc2)c1CNC(C)(C)C`: the GI50 with U-251 (48 h), with 786-0 (48 h), in the series on K562 (48 h), in the series on NCI-H460 (48 h), in the series on MCF7 (48 h) and in the series with PC-3 (48 h) was greater than 542 µM each time. Further, the GI50 in the series on HaCaT, in the series on HT-29 (48 h) and in the series on OVCAR-3 (48 h) was greater than 542 µM each time.

On to `CCOC(=O)c1nn(-c2ccc(Cl)cc2)c(-c2ccc([N+](=O)[O-])cc2)c1CNC(C)(C)C` [listing 2 of 2 here], for which the GI50 was greater than 548 µM in the series on U-251 (Homo sapiens, U-251, 48 h); 316 µM in the series on 786-0 (48 h); 181 µM in the series on K562 (48 h); greater than 548 µM in the series with NCI-H460 (48 h); greater than 548 µM with MCF7 (48 h); greater than 548 µM with PC-3 (Homo sapiens, PC-3, 48 h). Besides, the GI50 came to 10.3 µM in the series with HaCaT; 42.3 µM with HT-29 (Homo sapiens, HT-29, 48 h); 206 µM with OVCAR-3 (48 h).

Consider `Cc1ccc(-c2c(CNC(C)(C)C)c(C(=O)O)nn2-c2ccccc2)cc1`, for which the concentration for 50% growth inhibition (GI50) with U-251 (Homo sapiens, U-251, 48 h) was greater than 688 µM; in the series with 786-0 (Homo sapiens, 786-0, 48 h) it was greater than 688 µM; in the series with K562 (Homo sapiens, K562, 48 h), greater than 688 µM; with NCI-H460 (Homo sapiens, NCI-H460, 48 h), greater than 688 µM; in the series on MCF7 (Homo sapiens, MCF7, 48 h), greater than 688 µM; with PC-3 (Homo sapiens, PC-3, 48 h) it was greater than 688 µM. The concentration for 50% growth inhibition (GI50) was greater than 688 µM in the series with HT-29 (Homo sapiens, HT-29, 48 h) and 283 µM in the series with OVCAR-3 (Homo sapiens, OVCAR-3, 48 h). In [1], the GI50 at 48 h is greater than 688 µM.

Regarding `CC(C)(C)NCc1c(C(=O)O)nn(-c2ccccc2)c1-c1ccc([N+](=O)[O-])cc1`, the GI50 with U-251 (Homo sapiens, U-251, 48 h) is greater than 634 µM; in the series on 786-0 (Homo sapiens, 786-0, 48 h), greater than 634 µM; in the series with K562 (Homo sapiens, K562, 48 h), greater than 634 µM; in the series with NCI-H460 (Homo sapiens, NCI-H460, 48 h), greater than 634 µM; with MCF7 (Homo sapiens, MCF7, 48 h) it was greater than 634 µM; in the series with PC-3 (Homo sapiens, PC-3, 48 h), greater than 634 µM. For the same compound, the 50% growth inhibitory concentration (GI50) in the series on HT-29 (Homo sapiens, HT-29, 48 h) is greater than 634 µM; in the series with OVCAR-3 (Homo sapiens, OVCAR-3, 48 h) it was greater than 634 µM. Besides, in [1], the GI50 at 48 h was greater than 634 µM.

With `CC(C)(C)NCc1c(C(=O)O)nn(-c2ccc(Cl)cc2)c1-c1ccc(Cl)cc1`, the GI50 in the series on U-251 (Homo sapiens, U-251, 48 h) was 518 µM; in the series with 786-0 (Homo sapiens, 786-0, 48 h) it was greater than 599 µM; in the series with K562 (Homo sapiens, K562, 48 h) it was 290 µM; in the series with NCI-H460 (Homo sapiens, NCI-H460, 48 h), greater than 599 µM; in the series on MCF7 (Homo sapiens, MCF7, 48 h), 246 µM; with PC-3 (Homo sapiens, PC-3, 48 h), greater than 599 µM. For the same compound, the GI50 is greater than 599 µM in the series on HT-29 (Homo sapiens, HT-29, 48 h) and 84.9 µM with OVCAR-3 (Homo sapiens, OVCAR-3, 48 h). Further, in series [1], the concentration for 50% growth inhibition (GI50) at 48 h amounted to 87.5 µM.

With `CC(C)(C)NCc1c(C(=O)O)nn(-c2ccccc2)c1-c1ccccc1`, the GI50 is greater than 716 µM in the series with U-251 (Homo sapiens, U-251, 48 h); greater than 716 µM in the series with 786-0 (Homo sapiens, 786-0, 48 h); greater than 716 µM with K562 (Homo sapiens, K562, 48 h); greater than 716 µM with NCI-H460 (Homo sapiens, NCI-H460, 48 h); greater than 716 µM in the series on MCF7 (Homo sapiens, MCF7, 48 h); greater than 716 µM in the series with PC-3 (Homo sapiens, PC-3, 48 h). For the same compound, the 50% growth inhibitory concentration (GI50) was greater than 716 µM in the series with HT-29 (Homo sapiens, HT-29, 48 h) and greater than 716 µM in the series with OVCAR-3 (Homo sapiens, OVCAR-3, 48 h). In addition, in [1], the GI50 at 48 h is greater than 716 µM.
